# From patent US20240201170A1, “MAINTENANCE AND/OR CULTURE OF TISSUE SLICES IN VITRO OR EX VIVO” (NATIONAL UNIVERSITY OF SINGAPORE, priority 2021, published 2024)
# Experiments:
# [1] = test system: cancer cells within HNSCC patient tumour slices; test: Cancer cell kill: pan-cytokeratin+ / cleaved caspase-3+ cells by dual IHC or IF in drug-treated tumour slices; type: cell-based, human
# Protocol: H&E staining and dual IHC were performed on drug-treated and untreated HNSCC slices. Briefly, slices were fixed, processed using the automatic tissue processor, and embedded in paraffin. Paraffin blocks were sectioned and H&E staining was performed. Dual IHC was performed using ChromoPlex 1 Dual Detection (Leica DS9665) with a high pH EDTA-based buffer (ER2, Leica AR9640) for 20 min. A specific cocktail of antibodies was used to identify cancer cell apoptosis, including pan-cytokeratin and cleaved caspase-3 antibody. Standard immunofluorescence were performed with active YAP1. Image acquisition was done using the slide scanning system. The images were processed with a customized analysis profile using the nuclear segmentation method to quantify the percentage of apoptotic cancer cells.
# [2] = test system: CD8+ cells in HNSCC tumour slices; test: Flow cytometry of granzyme B expression in CD8+ cells of drug-treated HNSCC patient tumour slices; type: cell-based, human
# Protocol: Tumour slices were first manually removed from the hydrogel and digested. Dissociated cells were spun down, washed, and resuspended, and counted using a cell counter. Prior to fixing, cells were stained for surface proteins with fluorophore-conjugated antibodies and fixable dye. The cell suspension were then […]. Compensation was performed using single stains; live cells and singlets were gated by gating on a dye differentiating live and dead cells or on scatter characteristics or both.
Compound,"apoptotic cancer cells ([1]; Patient 6 (HN358), controls ~5%) [%]","granzyme B expression in CD8+ cells ([2]; Patient 6 (HN358), control 8.9%) [%]","granzyme B expression in CD8+ cells ([2]; Patient 7 (HN359), compared to control)","cleaved caspase-3 positivity (apoptotic) in cancer cells ([1]; Patient 6 (HN358), Day 2, controls ~11%) [%]",tumour kill in drug-treated slices ([1]; Patient 7 (HN359))
N.N.[Cl][Pt][Cl] [cisplatin],~12,–,–,–,–
pembrolizumab,–,5.2,slight increase,~25,no enhanced tumour kill
